By Ki is commonly meant a dissociation constant, usually derived from enzyme kinetics or from competition with a known ligand. Low readings indicate higher affinity, high ones lower affinity. As usually defined, the half-life is the time needed for the level to fall by half in the phase considered. Read a low half-life as fast loss. The term Inhibition denotes the drop in the measured response relative to a control, in per cent.

SMILES strings stand for the structures.

The source of these data is ChEMBL document CHEMBL1127140, “Inhibition of human leukocyte elastase. 7. Inhibition by 6-substituted penicillin amides” (Bioorg Med Chem Lett, 1993).

In series [1] the target is T1, Neutrophil elastase (Homo sapiens) (UniProt P08246).
T1 sequence (whole entry): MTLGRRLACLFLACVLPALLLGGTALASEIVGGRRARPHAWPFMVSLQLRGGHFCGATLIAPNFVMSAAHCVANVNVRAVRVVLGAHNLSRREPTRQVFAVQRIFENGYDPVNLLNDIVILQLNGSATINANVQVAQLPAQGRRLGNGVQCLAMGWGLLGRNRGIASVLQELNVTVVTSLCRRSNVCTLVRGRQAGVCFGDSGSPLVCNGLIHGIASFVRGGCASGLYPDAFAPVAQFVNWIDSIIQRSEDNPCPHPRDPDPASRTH
Description: Inhibition of Elastase using Suc-Ala-Ala-Pro-Ala-pNA as substrate, activity expressed as Kobs/[I] (second order rate constant)

Series [2] addresses T2, Neutrophil elastase (Homo sapiens, UniProt P08246).
T2 sequence (P08246 whole entry): T1 sequence (whole entry)
Kind of series: Tested in vitro for its inhibitory effect against Elastase using Suc-Ala--Ala-Pro-Ala-pNA as substrate.

A short description of series [3]: Tested for chemical stability of the compound. Type of series: physicochemical.
For series [4], the system named is Cricetinae gen. sp. Briefly: Tested in vivo for inhibition of hamster lung hemorrhage after intratracheal administration at 2 hr prior to challenge with HLE (human leukocyte elastase). The series is classed as functional, Cricetulus griseus.
Series [5] deals with Cricetinae gen. sp. Briefly: Tested in vivo for inhibition of hamster lung hemorrhage after intratracheal administration at 3h prior to challenge with HLE (human leukocyte elastase). The series is classed as functional, Cricetulus griseus.
The test system of series [6] is Cricetinae gen. sp. Kind of series: Tested in vivo for inhibition of hamster lung hemorrhage after intratracheal administration at 1 hr prior to challenge with HLE (human leukocyte elastase). Type of series: functional, Cricetulus griseus.
The target of series [7] is T1, Neutrophil elastase (Homo sapiens). Briefly: Tested in vitro for its inhibitory effect against Human leukocyte elastase using Suc-Ala--Ala-Pro-Ala-pNA as substrate, activity expressed as Kobs/[I] (second order rate constant).
The test system of series [8] is Cricetinae gen. sp. Briefly: Tested in vivo for inhibition of hamster lung hemorrhage after intratracheal administration at 3h prior to challenge with HLE(human leukocyte elastase). Type of series: functional, Cricetulus griseus.

In the case of `CC1(C)[C@H](C(=O)N2CCC[C@@H]2C(=O)O)N2C(=O)[C@H](NC(=O)C(F)(F)F)[C@H]2S1(=O)=O`, the K obs / 1 in series [1] was 26 M⁻¹ s⁻¹.

For the compound `CN(C(=O)C(F)(F)F)[C@H]1C(=O)N2[C@@H](C(=O)OCc3ccc(C(=O)O)cc3)C(C)(C)S(=O)(=O)[C@H]12`, the K obs / 1 in series [1] stood at 5700 M⁻¹ s⁻¹.

For the compound `CN(CC(=O)O)C(=O)[C@@H]1N2C(=O)[C@H](NC(=O)C(F)(F)F)[C@H]2S(=O)(=O)C1(C)C`, the Ki in series [2] was found to be 14 µM. In addition, in series [3], the half-life was 4.8 h.

In series [1], `CN(Cc1ccc(C(=O)O)cc1)C(=O)[C@@H]1N2C(=O)[C@H](NC(=O)C(F)(F)F)[C@@H]2[S+]([O-])C1(C)C` (stereo partly drawn) showed a K obs / 1 of 1100 M⁻¹ s⁻¹. Further, the half-life in series [3] was 8.6 h.

In the case of `CO[C@H]1C(=O)N2C(C(=O)N(C)CC(=O)O)=C(COC(C)=O)CS(=O)(=O)[C@H]12`, the Inhibition in series [4] is recorded as 80%; in series [5], 54%; in series [6], 97%.

The compound `CCO[C@H]1C(=O)N2[C@@H](C(=O)OCc3ccc(C(=O)O)cc3)C(C)(C)S(=O)(=O)[C@H]12` gave a Ki in series [2] of 1.3 µM.

In series [1], `CC1(C)[C@H](C(=O)OCc2ccc(C(=O)O)cc2)N2C(=O)[C@@H](NC(=O)C(F)(F)F)[C@H]2S1(=O)=O` showed a K obs / 1 of 7100 M⁻¹ s⁻¹. The half-life in series [3] was 1.1 h.

In series [2], `CN(CC(=O)O)C(=O)[C@@H]1N2C(=O)[C@@H](NC(=O)C(F)(F)F)[C@H]2S(=O)(=O)C1(C)C` registered a Ki of 50 µM.

As for `CN(Cc1ccc(C(=O)O)cc1)C(=O)[C@@H]1N2C(=O)[C@H](NC(=O)C(F)(F)F)[C@H]2[S+]([O-])C1(C)C` (stereo partly drawn), in series [1], the K obs / 1 stood at 60 M⁻¹ s⁻¹. Also, the half-life in series [3] is 8.2 h.

Take `CO[C@H]1C(=O)N2[C@@H](C(=O)OCc3ccc(C(=O)O)cc3)C(C)(C)S(=O)(=O)[C@H]12`: the half-life in series [3] is under 1 h. The K obs / 1 in series [7] worked out at 5600 M⁻¹ s⁻¹.

On to `CC1(C)[C@H](C(=O)OCc2ccc(C(=O)O)cc2)N2C(=O)[C@H](NC(=O)C(F)(F)F)[C@H]2S1(=O)=O`, for which the K obs / 1 in series [1] was 89000 M⁻¹ s⁻¹. In addition, the half-life in series [3] is 1.1 h.

In series [2], `CC1(C)[C@H](C(=O)N2CCC[C@@H]2C(=O)O)N2C(=O)[C@@H](NC(=O)C(F)(F)F)[C@H]2S1(=O)=O` came in with a Ki of 22 µM.

On to `CO[C@H]1C(=O)N2C(C(=O)N3CCC[C@H]3C(=O)O)=C(COC(C)=O)CS(=O)(=O)[C@H]12`, for which the Inhibition is listed as 97% in series [4], 78% in series [8] and 99% in series [6]. In series [1], this compound showed a K obs / 1 of 3800 M⁻¹ s⁻¹.

In series [1], `CN(Cc1ccc(C(=O)O)cc1)C(=O)[C@@H]1N2C(=O)[C@H](NC(=O)C(F)(F)F)[C@H]2S(=O)(=O)C1(C)C` gave a K obs / 1 of 5400 M⁻¹ s⁻¹. This compound also had a half-life in series [3] of 4.2 h.

The compound `CC1(C)[C@H](C(=O)OCc2ccc(C(=O)O)cc2)N2C(=O)[C@H](NC(=O)C(F)(F)F)[C@@H]2[S+]1[O-]` (stereo partly drawn) came in with a K obs / 1 in series [1] of 4900 M⁻¹ s⁻¹. This compound had a half-life in series [3] of 5.3 h.

In series [2], `CC1(C)[C@H](C(=O)OCc2ccc(C(=O)O)cc2)N2C(=O)[C@H](NC(=O)C(F)(F)F)[C@H]2[S+]1[O-]` (stereo partly drawn) showed an inhibitory constant (Ki) of 1.5 µM. The compound further had a half-life in series [3] of 1.4 h.

In the case of `CO[C@H]1C(=O)N2[C@@H](C(=O)N(C)CC(=O)O)C(C)(C)S(=O)(=O)[C@H]12`, in series [2], the affinity, expressed as Ki, was 53 µM.

For the compound `CN(Cc1ccc(C(=O)O)cc1)C(=O)[C@@H]1N2C(=O)[C@@H](NC(=O)C(F)(F)F)[C@H]2S(=O)(=O)C1(C)C`, the K obs / 1 in series [1] was determined as 275 M⁻¹ s⁻¹. The half-life in series [3] is 4.5 h.
